In ChEMBL document CHEMBL6134853, “Design, Synthesis, and Biological Evaluation of Pyrrolo[1,2-a]quinoxalin-4(5H)-one Derivatives as Potent and Orally Available Noncovalent Bruton's Tyrosine Kinase (BTK) Inhibitors” (J Med Chem, 2025):
≈ marks a conversion by molar mass, not a printed value.

Key:
[1] = molecular target: Tyrosine-protein kinase BTK (Homo sapiens, UniProt Q06187); assay: Inhibition of BTK (unknown origin) by HTRF analysis
[2] = AUC (0 to t) in male Sprague-Dawley rat at 10 mg/kg, po measured up to 24 hrs by LC-MS/MS analysis; type: ADME, organism-based; settings: in vivo
U-937 [3] = assay: Antiproliferative activity against human U-937 cells expressing BTK assessed as inhibition of cell proliferation incubated for 48 hrs by CCK-8 assay; type: functional, cell-based; settings: U-937, 48 h
[4] = Aqueous solubility of compound in PBS buffer at pH 7.4 by HPLC analysis; type: physicochemical
[5] = Metabolic stability in rat liver microsome measured for 60 mins by UHPL-UV-HRMS analysis; type: ADME; settings: microsomes, 1 h
U-937 [6] = assay: Antitumor activity against human U-937 cells xenografted in BALB/c mouse assessed as tumor growth inhibition at 50 mg/kg, po administered once a day for 14 days; type: functional; settings: U-937, 336 h, time 14 day, read-out: TGI
Ramos = assay: Antiproliferative activity against human Ramos cells expressing BTK assessed as inhibition of cell proliferation incubated for 48 hrs by CCK-8 assay; type: functional, cell-based
[7] = Cmax in male Sprague-Dawley rat at 10 mg/kg, po measured up to 5 hrs by LC-MS/MS analysis; type: ADME, organism-based; settings: in vivo
[8] = MRT (0 to 5 hrs) in male Sprague-Dawley rat at 10 mg/kg, po measured up to 5 hrs by LC-MS/MS analysis; type: ADME, organism-based; settings: in vivo
[9] = AUC (0 to 5 hrs) in male Sprague-Dawley rat at 10 mg/kg, po measured up to 5 hrs by LC-MS/MS analysis; type: ADME, organism-based; settings: in vivo
[10] = Tmax in male Sprague-Dawley rat at 10 mg/kg, po measured up to 5 hrs by LC-MS/MS analysis; type: ADME, organism-based; settings: in vivo

Tyrosine-protein kinase BTK, sequence (Q06187 whole entry): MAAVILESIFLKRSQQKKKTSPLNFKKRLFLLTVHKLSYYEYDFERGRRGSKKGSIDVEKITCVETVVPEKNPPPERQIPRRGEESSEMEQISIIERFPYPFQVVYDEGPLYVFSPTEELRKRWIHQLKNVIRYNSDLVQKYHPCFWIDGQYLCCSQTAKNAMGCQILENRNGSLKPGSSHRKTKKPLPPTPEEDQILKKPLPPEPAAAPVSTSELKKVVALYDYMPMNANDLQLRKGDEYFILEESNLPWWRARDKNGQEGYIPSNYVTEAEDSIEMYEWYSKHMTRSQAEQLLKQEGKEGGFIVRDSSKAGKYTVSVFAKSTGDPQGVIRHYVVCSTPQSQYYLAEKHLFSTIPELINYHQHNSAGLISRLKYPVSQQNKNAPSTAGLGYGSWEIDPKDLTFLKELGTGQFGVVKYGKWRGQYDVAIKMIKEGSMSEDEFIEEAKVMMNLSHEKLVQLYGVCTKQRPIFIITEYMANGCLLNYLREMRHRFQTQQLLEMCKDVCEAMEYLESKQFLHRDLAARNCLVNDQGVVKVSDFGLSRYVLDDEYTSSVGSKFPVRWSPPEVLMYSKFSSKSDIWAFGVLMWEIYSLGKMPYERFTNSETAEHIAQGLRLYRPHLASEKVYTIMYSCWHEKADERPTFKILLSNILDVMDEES

Row | IC50 [1] [µM] | IC50 (U-937 [3]) [µM] | IC50 (Ramos) [µM] | SMILES | other results
1 | 0.0542 |  |  | Cc1c(-c2ccc3c(=O)[nH]c4cc(C(C)(C)O)ccc4n23)cccc1-n1c(=O)oc2c(F)cccc2c1=O | 
2 | 0.0181 | 15.9 | 16.8 | Cc1c(-c2ccc3c(=O)[nH]c4cc(C(C)(C)O)ccc4n23)cccc1N1CNc2c(F)cccc2C1=O | 
3 | 0.0072 | > 40 | 35.6 | Cc1c(-c2ccc3c(=O)[nH]c4cc(C(C)(C)O)ccc4n23)cccc1-n1c(=O)[nH]c2c(F)cc(F)cc2c1=O | 
4 | 0.0334 |  |  | Cc1c(-c2ccc3c(=O)[nH]c4cc(CN5CCOCC5)ccc4n23)cccc1-n1c(=O)[nH]c2c(F)cccc2c1=O | 
5 | 0.0121 | 6.2 | 17.9 | Cc1c(-c2ccc3c(=O)[nH]c4cc(C(C)(C)O)ccc4n23)cccc1-n1c(=O)[nH]c2cccc(F)c2c1=O | 
6 | 0.00042 | 9.3 | 13.6 | Cc1c(-c2c(F)cc(C(N)=O)c3[nH]c4c(c23)CC[C@H](C(C)(C)O)C4)cccc1-n1c(=O)c2cccc(F)c2n(C)c1=O [BMS-986142] | 
7 | 0.0492 |  |  | Cc1c(NC(=O)c2cccc(F)c2N)cccc1-c1ccc2c(=O)[nH]c3cc(C(C)(C)O)ccc3n12 | 
8 | 0.0648 |  |  | Cc1c(-c2ccc3c(=O)[nH]c(-c4ccc(C(C)(C)O)cc4)cn23)cccc1-n1c(=O)[nH]c2c(F)cccc2c1=O | solubility [4]: < 0.5 µg/mL
9 | 0.0124 | 13.3 | 19 | [2H]C([2H])([2H])C(O)(c1ccc2c(c1)[nH]c(=O)c1ccc(-c3cccc(-n4c(=O)[nH]c5c(F)cccc5c4=O)c3C)n12)C([2H])([2H])[2H] | Cmax [7]: 10.4 ng/mL; MRT last at 5 h [8]: 2.05 h; AUC(0-t) at 5 h [9]: 31.1 ng·h/mL; Tmax [10]: 0.5 h
10 | 0.327 |  |  | Cc1c(-c2cc(CO)c3c(=O)[nH]c4cc(C(C)(C)O)ccc4n23)cccc1-n1c(=O)[nH]c2c(F)cccc2c1=O | solubility [4]: 5.5 µg/mL (≈ 10.2 µM)
11 | > 1 |  |  | Cc1c(-c2ccc3n2Cc2ccc(C(C)(C)O)cc2NC3=O)cccc1-n1c(=O)[nH]c2c(F)cccc2c1=O | solubility [4]: < 0.5 µg/mL

Further lines, the compound ahead of its results:

Row | SMILES | IC50 [1] [µM] | IC50 (U-937 [3]) [µM] | IC50 (Ramos) [µM] | other results
12 | Cc1c(-c2ccc3c(=O)[nH]c4cc(C(C)(C)O)ccc4n23)cccc1-n1c(=O)[nH]c2c(F)cccc2c1=O | 0.0083 | 11.6 | 19.9 | AUC(0-t) at 24 h [2]: 51.9 ng·h/mL; solubility [4]: 1.1 µg/mL (≈ 2.15 µM); Stability [5]: Stable; inhibition in vivo at 50 mg/kg (U-937 [6]): 28.7%; Cmax [7]: 14.2 ng/mL; MRT last at 5 h [8]: 1.02 h; AUC(0-t) at 5 h [9]: 39.7 ng·h/mL; Tmax [10]: 1 h
13 | Cc1cc2c(=O)[nH]c3cc(C(C)(C)O)ccc3n2c1-c1cccc(-n2c(=O)[nH]c3c(F)cccc3c2=O)c1C | 0.011 | 6 | 15 | Cmax [7]: 5.16 ng/mL; MRT last at 5 h [8]: 1.17 h; AUC(0-t) at 5 h [9]: 8.45 ng·h/mL; Tmax [10]: 1 h
14 | CC(C)(O)c1ccc2c(c1)[nH]c(=O)c1ccc(-c3cccc(-n4c(=O)[nH]c5c(F)cccc5c4=O)c3C(F)F)n12 | 0.0107 | 12.5 | > 40 | 
15 | CC(C)(O)c1ccc2c(c1)[nH]c(=O)c1ccc(-c3cccc(-n4c(=O)[nH]c5c(F)cccc5c4=O)c3)n12 | 0.0737 |  |  | 
16 | Cc1c(-c2ccc3c(=O)[nH]c4cc(C(C)(C)O)ccc4n23)cccc1N1CC(=O)Nc2c(F)cccc2C1=O | 0.0368 |  |  | solubility [4]: 6.3 µg/mL (≈ 12 µM)
17 | Cc1c(-c2c(C#N)cc3c(=O)[nH]c4cc(C(C)(C)O)ccc4n23)cccc1-n1c(=O)[nH]c2c(F)cccc2c1=O | > 1 |  |  | 
18 | CC(C)(O)c1ccc2c(c1)[nH]c(=O)c1ccc(-c3cccc(-n4c(=O)[nH]c5c(F)cccc5c4=O)c3CO)n12 | 0.015 | > 40 | > 40 | solubility [4]: 8.4 µg/mL (≈ 16 µM)
19 | Cc1c(-c2ccc3c(=O)[nH]c4cc(C(C)(C)O)ccc4n23)cc(F)cc1-n1c(=O)[nH]c2c(F)cccc2c1=O | 0.0173 | 12 | 23.7 | 
20 | Cc1c(-c2ccc3c(=O)[nH]c4cc(C(F)F)ccc4n23)cccc1-n1c(=O)[nH]c2c(F)cccc2c1=O | 0.0536 |  |  | 
21 | Cc1c(-c2ccc3c(=O)[nH]c4cc(C(C)(C)O)ccc4n23)cccc1-n1c(=O)[nH]c2cc(C3CC3)ccc2c1=O | 0.0168 | 13.8 | 8.7 | 
22 | Cc1c(-c2ccc3c(=O)[nH]c4cc(C(C)(C)O)ccc4n23)cccc1N1C(=O)c2cccc(F)c2C1=O | 0.0221 | > 40 | > 40 | 
23 | Cc1c(-c2ccc3c(=O)[nH]c4cc(C(F)(F)F)ccc4n23)cccc1-n1c(=O)[nH]c2c(F)cccc2c1=O | 0.0607 |  |  | 
24 | Cc1c(-c2ccc(C(N)=O)n2-c2ccc(C(C)(C)O)cc2)cccc1-n1c(=O)[nH]c2c(F)cccc2c1=O | > 1 |  |  | solubility [4]: 30.6 µg/mL (≈ 59.7 µM)
25 | C=CC(=O)N1CCC[C@@H](n2nc(-c3ccc(Oc4ccccc4)cc3)c3c(N)ncnc32)C1 [IBRUTINIB] |  | 3.7 | 15.1 | inhibition in vivo at 50 mg/kg (U-937 [6]): 41.1%
26 | Cc1c(-c2c(F)cc3c(=O)[nH]c4cc(C(C)(C)O)ccc4n23)cccc1-n1c(=O)[nH]c2c(F)cccc2c1=O | 0.0058 | > 40 | > 40 | 
